According to patent EP3958980B1, “TARGETED NOVEL TRIAZOLOTHIADIAZINE DERIVATIVES FOR THE TREATMENT OF LUNG CANCER” (Anadolu Universitesi, priority 2020, dated 2021):
Values after ≈ are worked out from the molar mass of the structure shown. Values joined by “and” are separate entries in the source; they are usually repeats but may differ in a detail not shown here. Equal values may be shown once.

Key:
[1] = test system: Akt; test: Akt colorimetric in cell ELISA in A549 cells; assay type: cell-based, human; settings: 24 hours; for Akt inhibition (in words): compared to cisplatin and GSK690693
Description: After 10.000 cells were seeded in the wells, they were kept in the incubator for 24 hours. […] Briefly, the medium was removed from the wells and 100 µL of 4% formaldehyde was added. The plate was incubated in a fume hood for 15 minutes. Formaldehyde was removed and the plate was washed twice with 1X […] (TBS) such as to be 100 µL/well. 1X TBS was removed and 100 µL 1X permeabilization solution was added to each well and it was kept at room temperature for 15 minutes. After the 1X permeabilization solution was removed, the wells were washed with 100 µL 1X TBS once. 1X TBS was removed and 100 µL quenching solution was added to each well and it was kept at room temperature for 20 minutes. Afterwards, this solution was removed. The plate was washed 1 time with 1X TBS and 100 µL blocking solution was added to the wells and it was kept at room temperature for 30 minutes. At the end of this period, the blocking solution was removed and 50 µL primary antibody was added to the wells. The plate was sealed with a cover and it was incubated overnight at 4 °C. The primary antibody was removed and the plate wells were washed 3 times with 100 µL 1X washing solution. After the washing solution was removed, 100 µL diluted horseradish peroxidase (HRP) conjugate was added and it was incubated at room temperature for 30 minutes. Later on this conjugate was removed and 100 µL 3,3',5,5'-tetramethylbenzidine (TMB) […] was added to each well and the absorbance values were read at 450 nm for 30 minutes. The experiment was carried out in triplicate. The values of the blank wells were subtracted from the values of the untreated control and treated cells. The Akt activity% was determined as the relative absorbance of treated versus untreated control cells.

[2] = test system: A549 cells; test: Cell cycle arrest by flow cytometry; assay type: cell-based, human; settings: IC50 doses, 24 hours
Description: After the active compounds were determined with the MTT assay, their effects on the cell cycle in A549 cells depending on IC50 concentrations were carried out according to the manufacturer's recommendations. Briefly, the cells were suspended in a citrate buffer solution. The cells were centrifuged at 400 × g for 5 minutes at room temperature. The supernatant was removed and 250 µL solution A was added on the pellet. Following this, 200 µL solution B was added and it was kept at room temperature 10 minutes. Afterwards 200 µL solution C was added and it was kept at +4 °C for 10 minutes. The cells were analyzed with flow cytometry using BD Biosciences ModFit software.

[3] = test system: A549 human lung adenocarcinoma cells; test: MTT assay, in vitro cytotoxic activity on A549; assay type: cell-based; settings: for IC50: Homo sapiens, A549, 24 hour incubation, read-out: IC50 values (µg/mL) A549 cell line
Description: The in vitro cytotoxic effects of the compounds were determined with the MTT assay. For this purpose, MTT test was performed using A549 and CCD-19Lu cell lines. After the cell lines used in the invention were centrifuged following taking them out from liquid nitrogen (-196 °C), the cells were cultured in a CO2 incubator comprising 5% CO2 at 37 °C in flasks containing 10% fetal bovine serum (FBS), where CCD-19Lu cells were cultured with Dulbecco's Modified Eagle's Medium (DMEM) and A549 cells were cultured with Roswell Park Memorial Institute (RPMI). The cells that reach the sufficient number for the assay, were seeded to 96 well plates such that 2×10^3 cells were placed in each well and at the same time, components at concentrations of 1-500 µg/mL were added to cells and they were incubated at 37 °C. At the end of the 24 hour incubation period, the MTT powder (5 mg/mL in 1 × phosphate buffered saline (PBS)) was added to each well (20 µL). After a 2-4 h period under the same conditions, the medium was removed from the plate and 100 µL of DMSO was added to each well to dissolve the dye and kept for 10 minutes. Then the plates were read at a wavelength of 540 nm using ELx808-IU Bio-Tek plate reader. The control cell viability which was not treated with the components was accepted to be 100% and the viability rates of the cells were expressed as %. […] According to the results obtained, the dose range was extended until the IC50 value was determined. MTT assay is a frequently used method which measures the cytotoxic effects of the compounds on the cells by converting the yellow colored MTT stain into purple colored formazan crystals via the mitochondrial succinate dehydrogenase activity. In the cytotoxic activity tests of the compounds, A549 lung adenocarcinoma and CCDLu19 normal lung fibroblast cell lines were used.

[4] = test system: ROCK; test: ROCK activity assay on lysates of treated A549 cells; assay type: cell-based, human; settings: for ROCK Inhibition% / ROCK inhibition (in words): 24 hours; for ROCK Inhibition%: IC50 concentration (9: 5.75; 11: 0.73; 12: 0.80; 14: 2.63; Cisplatin: 23.00 µg/mL); for ROCK inhibition (in words): IC50 and IC50/2 concentrations
Description: The intracellular COX, Akt and ROCK inhibitory effects of the active compounds determined with the MTT assay, were measured with the colorimetric assay according to the manufacturer's recommendations.
Two wells were used for each sample. 90 µL active ROCK-II positive control and samples were added to the wells of the substrate plate. 10 X kinase solution comprising DTT and ATP was added to 10 µL wells and the kinase reaction was started and the plate was incubated at 30 °C for 30-60 minutes. 50 µL 0.5 M EDTA was added to each well at pH=8.0 and the reaction was stopped. The wells were emptied and they were washed 3 times with 250 µL 1X washing solution. After the final washing, 100 µL anti-phospho-MYPT1 (Thr696) antibody was added. The plate was closed and it was incubated at room temperature for 1 hour on an orbital shaker. After the wells were washed three times again, 100 µL HRP-conjugated secondary antibody was added and it was incubated again at room temperature for 1 hour on an orbital shaker. After the wells were emptied, they were washed 3 times. Then 100 µL of substrate solution was added. It was incubated at room temperature for 5-20 minutes on an orbital shaker. 100 µL of stop solution was added. The absorbance of each well was read at a wavelength of 450 nm in a spectrophotometric microplate reader.

[5] = IC50/2 concentration (9: 2.88; 11: 0.37; 12: 0.40; 14: 1.32; GSK690693: 3.34; Cisplatin: 11.50 µg/mL)
[6] = IC50/4 concentration (9: 1.44; 11: 0.18; 12: 0.20; 14: 0.66; GSK690693: 1.69; Cisplatin: 5.75 µg/mL)
[7] = IC50 concentration (9: 5.75; 11: 0.73; 12: 0.80; 14: 2.63; GSK690693: 6.75; Cisplatin: 23.00 µg/mL)

Row | SMILES | Akt Inhibition% [1, 5] [%] | Akt Inhibition% [1, 6] [%] | Akt Inhibition% [1, 7] | Akt Inhibition% ([1]; IC50 concentration (9: 5.75; 11: 0.73; 12: 0.80; 14: 2.63; GSK690693: 6.75; Cisplatin: 23.00 µg/mL), listed as cisplatin) [%] | G0/G1% [2] [%] | G2/M% [2] [%] | S% [2] [%] | IC50 values (µg/mL) A549 cell line ([3]; 24 hour incubation) [µg/mL] | ROCK Inhibition% [4] | ROCK Inhibition% ([4]; listed as cisplatin) [%] | Akt inhibition (in words) [1] | IC50 [3] [µg/mL] | ROCK inhibition (in words) [4] | IC50 (ROCK inhibition) ([4]; 24 hours incubation) [µg/mL]
1 | N.N.[Cl][Pt][Cl] [Cisplatin, reference compound] | 56.23±1.45 | 50.46±6.89 | 59.55±8.44% | 59.55 | 45.92 | 4.00 | 50.07 | 23.00 ± 1.41 | 29.84±0.16% | 29.84 | – | – | – | –
2 | CS(=O)(=O)c1ccc(C2=Nn3c(CCc4ccc5c(c4)OCO5)nnc3SC2)cc1 [Compound 9] | 7.31±1.48 | 15.99±1.06 | 45.47% and 45.47±3.76% | – | 53.29 | 9.66 | 37.04 | – | 6.89±0.44% | – | moderate Akt inhibition | 5.75 ± 2.47 (≈ 13 µM) | did not exhibit significant ROCK inhibition | –
3 | FC(F)(F)c1ccc(C2=Nn3c(CCc4ccc5c(c4)OCO5)nnc3SC2)cc1 [Compound 11, 3-[2-(1,3-Benzodioxole-5-yl)ethyl]-6-(4-trifluoromethylphenyl)-7H-[1,2,4]triazolo [3,4-b][1,3,4]thiadiazine] | 6.66±3.51 | 0.91±1.29 | 8.18±3.74% | – | 57.29 | 8.15 | 34.57 | – | – | – | did not exhibit significant Akt inhibition | 0.73 ± 0.16 (≈ 1.69 µM) | did not exhibit significant ROCK inhibition | –
4 | Fc1cccc(C2=Nn3c(CCc4ccc5c(c4)OCO5)nnc3SC2)c1 [Compound 12, 3-[2-(1,3-Benzodioxole-5-yl)ethyl]-6-(3-fluorophenyl)-7H-[1,2,4]triazolo [3,4-b] [1,3,4]thiadiazine] | 16.67±0.05 | 19.24±2.43 | 46.87% and 46.87±4.60% | – | 54.20 | 6.52 | 39.28 | – | – | – | moderate Akt inhibition | 0.8 ± 0.05 (≈ 2.09 µM) | did not exhibit significant ROCK inhibition | –
5 | c1ccc(-c2ccc(C3=Nn4c(CCc5ccc6c(c5)OCO6)nnc4SC3)cc2)cc1 [Compound 14, 3-[2-(1,3-Benzodioxole-5-yl)ethyl]-6-(biphenyl-4-yl)-7H-[1,2,4]triazolo[3,4-b] [1,3,4]thiadiazine] | 15.99±3.66 | 23.51±3.00 | 44.30% and 44.30±5.68% | – | 54.92 | 7.91 | 37.17 | – | 53.85% and 53.85±8.85% | – | moderate Akt inhibition | 2.63 ± 0.72 (≈ 5.97 µM) | – | 2.55 ± 0.21 (≈ 5.79 µM)
